Active and inactive are the calls of the source. No cut-off for these calls is given here.
How the values were obtained:
[1] = molecular target: DNA (cytosine-5)-methyltransferase 1 (Homo sapiens) (UniProt P26358); assay: Inhibition of human DNMT1 using AdoMet and poly dI-dC at 50 uM after 2 hrs by radioactive assay
[2] = test system: U-937; assay: Cell cycle arrest in human U937 cells at 5 to 50 uM after 30 hrs by FACS analysis; assay type: functional, cell-based
[3] = test system: U-937; assay: Induction of apoptosis in human U937 cells assessed as accumulation at pre-G1 phase after 30 hrs by FACS analysis; assay type: functional, cell-based

Sequence of DNA (cytosine-5)-methyltransferase 1 (Homo sapiens) (P26358 whole entry): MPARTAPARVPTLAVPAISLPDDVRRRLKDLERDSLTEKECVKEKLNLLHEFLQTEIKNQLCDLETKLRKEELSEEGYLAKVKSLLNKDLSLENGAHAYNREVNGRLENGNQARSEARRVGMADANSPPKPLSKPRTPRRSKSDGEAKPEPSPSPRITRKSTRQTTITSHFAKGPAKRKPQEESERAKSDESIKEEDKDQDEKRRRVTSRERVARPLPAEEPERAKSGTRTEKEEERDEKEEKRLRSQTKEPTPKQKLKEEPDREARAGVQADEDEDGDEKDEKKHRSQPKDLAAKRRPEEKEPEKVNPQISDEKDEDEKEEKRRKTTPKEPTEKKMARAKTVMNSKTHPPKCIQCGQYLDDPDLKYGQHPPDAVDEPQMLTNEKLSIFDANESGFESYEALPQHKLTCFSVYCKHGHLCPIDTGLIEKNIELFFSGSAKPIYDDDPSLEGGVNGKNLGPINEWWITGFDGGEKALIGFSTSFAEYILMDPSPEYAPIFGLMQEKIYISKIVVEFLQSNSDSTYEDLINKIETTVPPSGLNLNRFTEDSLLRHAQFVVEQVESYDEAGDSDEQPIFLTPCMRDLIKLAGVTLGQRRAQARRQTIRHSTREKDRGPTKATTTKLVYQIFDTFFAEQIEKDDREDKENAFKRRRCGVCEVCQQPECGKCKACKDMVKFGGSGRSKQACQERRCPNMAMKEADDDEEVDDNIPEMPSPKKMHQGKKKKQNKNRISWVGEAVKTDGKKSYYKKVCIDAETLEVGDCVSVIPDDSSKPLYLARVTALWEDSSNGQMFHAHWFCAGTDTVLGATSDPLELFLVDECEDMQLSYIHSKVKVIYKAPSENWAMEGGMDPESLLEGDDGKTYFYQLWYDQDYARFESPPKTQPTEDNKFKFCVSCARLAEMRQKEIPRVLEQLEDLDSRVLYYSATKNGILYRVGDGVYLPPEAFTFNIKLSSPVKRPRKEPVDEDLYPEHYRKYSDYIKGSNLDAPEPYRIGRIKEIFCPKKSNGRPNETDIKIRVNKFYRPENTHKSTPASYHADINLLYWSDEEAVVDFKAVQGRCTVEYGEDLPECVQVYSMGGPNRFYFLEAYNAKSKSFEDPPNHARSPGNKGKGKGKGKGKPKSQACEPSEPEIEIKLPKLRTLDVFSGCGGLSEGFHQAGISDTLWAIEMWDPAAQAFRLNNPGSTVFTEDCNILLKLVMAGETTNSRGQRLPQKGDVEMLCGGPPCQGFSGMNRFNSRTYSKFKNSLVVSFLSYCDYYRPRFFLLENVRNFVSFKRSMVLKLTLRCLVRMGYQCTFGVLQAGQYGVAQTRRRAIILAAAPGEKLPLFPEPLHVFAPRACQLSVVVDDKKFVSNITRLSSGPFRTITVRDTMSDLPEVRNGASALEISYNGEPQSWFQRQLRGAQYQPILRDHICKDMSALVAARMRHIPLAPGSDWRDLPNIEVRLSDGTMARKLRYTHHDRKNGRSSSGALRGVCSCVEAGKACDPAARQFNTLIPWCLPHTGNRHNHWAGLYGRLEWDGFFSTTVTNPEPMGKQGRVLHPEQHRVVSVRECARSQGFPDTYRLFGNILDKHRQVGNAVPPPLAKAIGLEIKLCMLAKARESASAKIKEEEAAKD

Row | Compound | inhibition [1] | Activity [2] | Activity [3]
1 | O=C(O)[C@H](Cc1c[nH]c2ccccc12)N1C(=O)c2ccccc2C1=O | Active |  | 
2 | Cc1cc(Nc2ccc(NC(=O)c3ccc(Nc4ccnc5ccccc45)cc3)cc2)nc(N)n1 | Active | inactive | Dose-dependent effect
